Measurements taken from paper PMC8151276, “An Integrated Approach toward NanoBRET Tracers for Analysis of GPCR Ligand Engagement” (Molecules, 2021).

Target: T1, GRM7 (Homo sapiens, UniProt Q14831)
T1 construct: purchased Promega (in-house HiBiT-GPCR construct library, NanoBRET)
Assay: NanoBRET screen HiBiT-GRM7 in HEK293
Type: binding
Procedure: Each tracer candidate was screened across the entire library of HiBiT-GPCR constructs using NanoBRET as the detection modality. As depicted in Figure 4A, the specificity of interactions was evaluated through decrease in BRET due to competitive displacement of a bound tracer by excess parental compound. Each tracer was analyzed for binding to each HiBiT-GPCR fusion in the absence and in the presence of competing parental compound. Briefly, HEK293 cells were transfected with HiBiT-GPCR constructs diluted into promoterless DNA to reduce expression and maximize translocation to the cell surface. Each tracer candidate was then screened at concentrations of 1 μM and 0.1 μM across cells expressing these fusions. Cells were treated for 1.5 h with tracer either alone or in the presence of 20 μM competing parental compound (i.e., control). BRET was measured upon addition of purified LgBiT and subsequent complementation with HiBiT genetically fused to a GPCR. The specificity of interactions was assessed through a decrease in BRET signal due to competitive displacement of the bound tracer. To further gauge the robustness of these interactions, the fold response over the control (i.e., BRETtracer/BRETcontrol) was calculated. We chose a 1.5-fold response, which translates to ≥7-fold signal over noise as the minimal threshold required to score an interaction as positive.
HiBiT-GPCR DNA constructs were diluted in 10 mM Tris pH 8 to a final concentration of 0.01 μg/μL, arrayed in 96-well plates and stored at −20 °C. For transfection, HEK293 cells were suspended in Opti-MEM (without phenol red) supplemented with 2% fetal bovine serum (Seradigm) and 100 units/mL penicillin–streptomycin (Gibco) at a final concentration of 220,000 cells/mL and dispensed into white 96-well plates at 90 μL/well. Subsequent transfections and screens were carried using an Agilent Bravo Automated Liquid Handling Platform. First, the 96-well HiBiT DNA arrays were diluted 25-fold in Opti-MEM (without serum or phenol red) to a final concentration of 0.0004 μg/μL and 20 μL of the diluted DNAs were transferred into new 96-well plates. Next, promoterless carrier DNA (1 μg/μL) was diluted 25-fold (0.04 μg/μL) and then dispensed into the diluted arrays at 20 μL/well. Following brief mixing, Viafect transfection reagent (Promega) diluted 16-fold into Opti-MEM was dispensed into the plates at 40 μL/well. After mixing by pipetting, plates were incubated for 10 min on the pipetting station deck. The DNA-transfection reagent complexes were then added to plates containing cells. To facilitate the screen, 10 μL of DNA-transfection reagent complexes were added in duplicates to the top 4 and bottom 4 rows, resulting in two identical 48-well arrays per plate. Plates with transfected cells were incubated for 18–20 h at 37 °C/5% CO2. A screen of each tracer across the entire library using two different concentrations requires duplicate plates of transfected cells. Depending on the number of tracers being screened, transfections can be scaled up using the same ratios. The next day, for each tracer, four 20× screening solutions in tracer dilution buffer (Promega) were prepared: two duplicates at final concentration of 20 μM and two duplicates at a final concentration of 2 μM. […] The four resulting solutions were diluted 4-fold in Opti-MEM without serum or phenol red to generate 5× solutions (5 µM and 0.5 µM tracer +/− 100 μM competing compound). To screen the library, a BioTek MultiFlo FX liquid dispenser was used to dispense 22.5 µL of tracer solution to the top 4 rows and 22.5 µL tracer + competing compound solution to the 4 bottom rows. Plates were briefly mixed on an orbital shaker and incubated for 1.5 h at room temperature. […] Plates were briefly mixed on an orbital shaker and incubated for 15 min to allow complementation.

T1 sequence (Q14831 35-915): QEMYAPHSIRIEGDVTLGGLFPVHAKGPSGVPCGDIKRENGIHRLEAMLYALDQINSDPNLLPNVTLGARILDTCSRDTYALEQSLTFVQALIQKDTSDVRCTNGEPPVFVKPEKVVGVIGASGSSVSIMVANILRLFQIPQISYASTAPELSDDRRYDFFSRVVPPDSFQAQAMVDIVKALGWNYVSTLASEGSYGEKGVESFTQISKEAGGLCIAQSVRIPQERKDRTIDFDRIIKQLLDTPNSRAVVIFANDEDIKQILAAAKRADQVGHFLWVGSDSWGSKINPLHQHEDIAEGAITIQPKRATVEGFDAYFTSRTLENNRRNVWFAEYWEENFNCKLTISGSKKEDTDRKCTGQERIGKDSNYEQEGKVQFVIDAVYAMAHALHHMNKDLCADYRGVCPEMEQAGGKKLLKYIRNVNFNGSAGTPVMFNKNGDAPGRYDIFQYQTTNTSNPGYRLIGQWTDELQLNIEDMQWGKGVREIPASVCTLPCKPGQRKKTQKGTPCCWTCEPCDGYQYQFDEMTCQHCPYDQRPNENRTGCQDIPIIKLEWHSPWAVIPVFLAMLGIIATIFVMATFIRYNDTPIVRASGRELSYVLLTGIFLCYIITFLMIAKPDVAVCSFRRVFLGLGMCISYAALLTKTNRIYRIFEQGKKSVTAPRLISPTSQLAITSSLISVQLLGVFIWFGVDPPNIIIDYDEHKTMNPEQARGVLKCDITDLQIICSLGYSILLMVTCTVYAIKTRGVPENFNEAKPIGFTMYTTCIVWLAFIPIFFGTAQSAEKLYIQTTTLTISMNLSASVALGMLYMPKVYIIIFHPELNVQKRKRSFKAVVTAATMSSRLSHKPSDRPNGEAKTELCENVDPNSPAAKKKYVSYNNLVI

| SMILES | NanoBRET Fold Response (GRM7, tracer 0.1μM) | NanoBRET Fold Response (GRM7, tracer 1μM) | other results |
| --- | --- | --- | --- |
| O=C(CCOCCOCCOCCOCCNC(=O)CCc1ccc2n1[B-](F)(F)[N+]1=C(c3ccc[nH]3)C=CC1=C2)NCCCN1CCN(C2=Nc3ccccc3Oc3ccc(Cl)cc32)CC1 [Loxapine-a-2-NB590] | 1.07 | 1.12 |  |
| CCCn1c(=O)c2[nH]c(-c3ccc(OCC(=O)NCCNC(=O)CCOCCNC(=O)c4ccc(CNC(=O)CCc5ccc6n5[B-](F)(F)[N+]5=C(c7ccc[nH]7)C=CC5=C6)cc4)cc3)nc2n(CCC)c1=O [XAC-3-NB590] | 1.03 | 1.07 |  |
| COc1ccccc1N1CCN(CCCCN2C(=O)c3ccc(CNC(=O)CCOCCOCCOCCOCCNC(=O)CCc4ccc5n4[B-](F)(F)[N+]4=C(c6ccc[nH]6)C=CC4=C5)cc3C2=O)CC1 [NAN-190-2-NB590] | 1.00 |  |  |
| O=C(CCc1ccc2n1[B-](F)(F)[N+]1=C(c3ccc[nH]3)C=CC1=C2)NCc1ccc(C(=O)NCCOCCOCCNCC(O)COc2cccc3ccccc23)cc1 (stereo not shown) [Propranolol-3-NB590] |  |  | NanoBRET Fold Response (GRM7, 0.1μM): 1.00; NanoBRET Fold Response (GRM7, 1μM): 0.97 |
| COc1ccccc1N1CCN(CCCCN2C(=O)c3ccc(CNC(=O)CCOCCNC(=O)c4ccc(CNC(=O)CCc5ccc6n5[B-](F)(F)[N+]5=C(c7ccc[nH]7)C=CC5=C6)cc4)cc3C2=O)CC1 [NAN-190-3-NB590] | 1.01 | 0.95 |  |
| O=C(CCc1ccc2n1[B-](F)(F)[N+]1=C(c3ccc[nH]3)C=CC1=C2)NCc1ccc(C(=O)NCCOCCC(=O)N[C@@H]2CC[C@@]3(O)[C@H]4Cc5ccc(O)c6c5[C@@]3(CCN4CC3CC3)[C@H]2O6)cc1 [Naltrexone-3-NB590] | 1.01 | 0.93 |  |
| CCOC(=O)c1cc(C#N)c(N2CCC(C(=O)NS(=O)(=O)Cc3ccccc3/C=C/C(=O)NCCNC(=O)CCc3ccc4n3[B-](F)(F)[N+]3=C(c5ccc[nH]5)C=CC3=C4)CC2)nc1C [AZD1283-1-NB590] |  |  | NanoBRET Fold Response (GRM7, 0.1μM): 0.98; NanoBRET Fold Response (GRM7, 1μM): 1.05 |
| COc1ccc2[nH]c(-c3ccc(CNC(=O)CCOCCOCCOCCOCCNC(=O)CCc4ccc5n4[B-](F)(F)[N+]4=C(c6ccc[nH]6)C=CC4=C5)cc3)c(CCNC(C)=O)c2n1 [AzomelatoninICO9-2-NB590] |  |  | NanoBRET Fold Response (0.1μM tracer): 1.03; NanoBRET Fold Response (1μM tracer): 1.08 |
| CC(C)N(CC[C@H](c1ccccc1)c1cc(CCNC(=O)CCOCCOCCOCCOCCNC(=O)CCc2ccc3n2[B-](F)(F)[N+]2=C(c4ccc[nH]4)C=CC2=C3)ccc1O)C(C)C [Tolterodine-2-NB590] | 1.18 | 0.89 |  |
| CN1CCN(C2=Nc3cc(Cl)ccc3N(CC(=O)NCCOCCOCCOCCOCCNC(=O)CCc3ccc4n3[B-](F)(F)[N+]3=C(c5ccc[nH]5)C=CC3=C4)c3ccccc32)CC1 [Clozapine-c-2-NB590] |  |  | NanoBRET Fold Response (GRM7, 0.1μM tracer): 1.00; NanoBRET Fold Response (GRM7, 1μM tracer): 1.03 |
| N#CN=C(NCCCOc1cccc(CN2CCCCC2)c1)NCCNC(=O)CCOCCOCCOCCOCCNC(=O)CCc1ccc2n1[B-](F)(F)[N+]1=C(c3ccc[nH]3)C=CC1=C2 [Aminopotentidine-2-NB590] | 0.98 | 1.05 |  |
| COc1ccc2c(n1)c(CCNC(C)=O)cn2CCNC(=O)CCc1ccc2n1[B-](F)(F)[N+]1=C(c3ccc[nH]3)C=CC1=C2 [Azamelatonin-1-NB590] |  |  | NanoBRET Fold Response (0.1μM tracer): 1.10; NanoBRET Fold Response (1μM tracer): 1.16 |
| CC(C)N(CC[C@H](c1ccccc1)c1cc(CCNC(=O)c2ccc(CNC(=O)CCc3ccc4n3[B-](F)(F)[N+]3=C(c5ccc[nH]5)C=CC3=C4)cc2)ccc1O)C(C)C [Tolterodine-BZ-NB590] | 0.99 | 1.02 |  |
| O=C(CCc1ccc2n1[B-](F)(F)[N+]1=C(c3ccc[nH]3)C=CC1=C2)NCCOCCOCCNC(=O)OCCOCCN1CCN(C2=Nc3ccccc3Sc3ccccc32)CC1 [Quetiapine-a-2-NB590] | 1.03 | 1.05 |  |
| Cc1cc2c(s1)Nc1ccccc1N=C2N1CCN(CCCNC(=O)CCOCCOCCOCCOCCNC(=O)CCc2ccc3n2[B-](F)(F)[N+]2=C(c4ccc[nH]4)C=CC2=C3)CC1 [Olanzapine-a-2-NB590] | 1.00 | 1.02 |  |
| CN(C)CCC=C1c2ccccc2CCc2ccc(C(=O)NCCNC(=O)CCOCCOCCOCCOCCNC(=O)CCc3ccc4n3[B-](F)(F)[N+]3=C(c5ccc[nH]5)C=CC3=C4)cc21 [Amitriptyline-b-2-NB590] | 1.09 | 1.00 |  |
| O=C(CCOCCOCCOCCOCCNC(=O)CCc1ccc2n1[B-](F)(F)[N+]1=C(c3ccc[nH]3)C=CC1=C2)NCCCN1CCN(C2=Nc3cc(Cl)ccc3Nc3ccccc32)CC1 [Clozapine-a-2-NB590] |  |  | NanoBRET Fold Response (GRM7, 0.1μM tracer): 0.95; NanoBRET Fold Response (GRM7, 1μM tracer): 0.92 |
| CN1CCN(C2=Nc3cc(Cl)ccc3Nc3ccc(CNC(=O)CCOCCOCCOCCOCCNC(=O)CCc4ccc5n4[B-](F)(F)[N+]4=C(c6ccc[nH]6)C=CC4=C5)cc32)CC1 [Clozapine-b-2-NB590] |  |  | NanoBRET Fold Response (GRM7, 0.1μM tracer): 1.04; NanoBRET Fold Response (GRM7, 1μM tracer): 0.93 |
| Cc1nc2n(c(=O)c1CCN1CCC(c3noc4cc(F)ccc34)CC1)CCCC2OC(=O)NCCOCCOCCOCCOCCNC(=O)CCc1ccc2n1[B-](F)(F)[N+]1=C(c3ccc[nH]3)C=CC1=C2 (stereo not shown) [Risperidone-2-NB590] | 1.00 | 1.00 |  |
